# Data from patent US20240336630A1, “MAP4K1 INHIBITORS” (Blueprint Medicines Corporation, priority 2021, published 2024).
# Biological target: T1, MAP4K1 (HPK1) (Homo sapiens, UniProt Q92918)
# T1 construct: purchased Invitrogen
# Assay: Inhibition of MAP4K1 biochemical enzymatic activity (EZReader 2 electrophoretic mobility shift)
# Details: HPK1 (Invitrogen), S6K2tide 1.5 μM, 120 min; ATP 26 μM or 1000 μM, not stated which for Table 3
# Description: MAP4K1 (HPK1) and relevant off-target enzymatic activity was monitored using the Perkin Elmer electrophoretic mobility shift technology platform—the EZReader 2. […] Within the linear, steady-state phase of the kinase enzymatic reaction, the mixed pool of phosphorylated (product) and non-phosphorylated (substrate) peptides was passed through the microfluidic system of the PerkinElmer EZ Reader 2, under an applied electric potential difference. The presence of the phosphate group on the product peptide provided a difference in mass and charge between that of the substrate peptide, resulting in a separation of the substrate and product pools in the sample (Perrin et al. 2010). As the product and substrate peptide mixture passes the lasers within the instrument, these pools are detected (λex=488 nm, λem=568 nm) and resolved as separate peaks. The ratio between these peaks reflects the activity of the compound at that concentration, in that well, under those conditions.
# Inhibitors were dissolved in 100% DMSO at a stock concentration of 10 mM. A 100×, 10-point, 4-fold serial dilution of each inhibitor was created in 100% DMSO either manually or on a Hamilton STAR liquid handler, starting at a relevant concentration, usually 1 mM. A volume of 0.130 μL of each concentration was transferred to the relevant wells of a 384-well plate (Greiner 781 201) in duplicate using a TTPLabtech Mosquito nano-litre dispenser. Using a Multidrop Combi, the remaining constituents of the kinase reaction were added to the 130 nL of dosed compound as follows (see table below for final reaction details):
# Enzyme activity assays at the ^APPKM for ATP or 1 mM ATP: In each well of a 384-well plate, 0.1-15 nM of untreated enzyme was incubated in a total of 13 μL of buffer (100 mM HEPES pH 7.5, 0.015% Brij 35, 10 mM MgCl2, 1 mM DTT) with 1.5 μM fluorescent peptide and 20-1000 μM ATP, at 25° C., for 60-180 minutes in the presence or absence of a dosed concentration series of compound (1% DMSO final concentration). The kinase reactions were stopped by the addition of 70 μl of Stop buffer (100 mM HEPES pH 7.5, 0.015% Brij 35, 35 mM EDTA and 0.2% of Coating Reagent 3 (Caliper Lifesciences)). The plates were read on a Caliper EZReader 2 as described above.
# T1 sequence (Q92918 whole entry): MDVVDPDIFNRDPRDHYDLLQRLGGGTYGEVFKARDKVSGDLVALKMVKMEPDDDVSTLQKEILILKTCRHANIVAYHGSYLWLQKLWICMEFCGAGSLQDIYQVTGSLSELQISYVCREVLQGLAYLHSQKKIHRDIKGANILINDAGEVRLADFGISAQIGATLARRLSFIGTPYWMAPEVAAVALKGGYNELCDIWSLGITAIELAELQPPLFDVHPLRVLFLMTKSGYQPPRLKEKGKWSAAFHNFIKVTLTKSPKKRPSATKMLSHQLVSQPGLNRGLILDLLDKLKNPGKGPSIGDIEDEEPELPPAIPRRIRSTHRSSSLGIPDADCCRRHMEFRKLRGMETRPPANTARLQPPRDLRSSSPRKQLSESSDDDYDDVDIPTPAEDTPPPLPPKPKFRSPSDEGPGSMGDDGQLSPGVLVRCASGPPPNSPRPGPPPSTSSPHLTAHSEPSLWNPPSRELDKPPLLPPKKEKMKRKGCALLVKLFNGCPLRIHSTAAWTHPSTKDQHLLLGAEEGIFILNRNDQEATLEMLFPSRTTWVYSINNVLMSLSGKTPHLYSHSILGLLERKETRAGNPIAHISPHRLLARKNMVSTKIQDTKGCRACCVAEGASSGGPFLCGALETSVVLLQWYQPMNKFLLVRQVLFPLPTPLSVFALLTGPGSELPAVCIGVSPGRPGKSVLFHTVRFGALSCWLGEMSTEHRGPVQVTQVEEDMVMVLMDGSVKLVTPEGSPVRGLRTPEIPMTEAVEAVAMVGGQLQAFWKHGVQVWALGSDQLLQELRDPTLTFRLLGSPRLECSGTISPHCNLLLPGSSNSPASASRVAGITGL
row,SMILES,IC50 [nM]
1,COc1ccc(C(C)(C)O)c2cc(Nc3ccnc(C(C)(C)F)n3)ncc12 [Compound 5],18.4
2,COc1ncc(C(C)(C)O)c2cc(Nc3ccnc(N4CC[C@@H]4C)n3)ncc12 [Compound 9],1.63
3,"COC[C@@](C)(O)c1cnc(OC2CC2)c2cnc(Nc3ccc4c(n3)[C@@H](C)[C@H](C)OC4=O)cc12 (single isomer, unassigned) [Compound 35]",67.3
4,COc1ncc(C(C)(C)O)c2cc(Nc3ccnc(N4CCC[C@@H]4C)n3)ncc12 [Compound 10],1.19
5,"CC[C@@](C)(O)c1cnc(NC2CC2)c2cnc(Nc3ccc4c(n3)[C@@H](C)C(C)(C)OC4=O)cc12 (single isomer, unassigned) [Compound 28]",3.03
6,"C[C@@H]1c2nc(Nc3cc4c([C@@](C)(O)C5CCC5)cnc(OC5CC5)c4cn3)ccc2C(=O)OC1(C)C (single isomer, unassigned) [Compound 44]",1.53
7,"CC[C@@H](O)c1cnc(OC2CN(S(C)(=O)=O)C2)c2cnc(Nc3ccc4c(n3)[C@@H](C)C(C)(C)OC4=O)cc12 (single isomer, unassigned) [Compound 63]",2.94
8,COc1ncc(C(C)(C)O)c2cc(Nc3cnc(C#N)c(C(C)C)n3)ncc12 [Compound 7],17.5
9,"C[C@@H]1OC(=O)c2ccc(Nc3cc4c(C(C)(C)O)cnc(OC5CN(S(C)(=O)=O)C5)c4cn3)nc2[C@H]1C [Compound 57, (7S,8R)-2-((5-(2-Hydroxypropan-2-yl)-8-((1-(methylsulfonyl)azetidin-3-yl)oxy)-2,7-naphthyridin-3-yl)amino)-7,8-dimethyl-7,8-dihydro-5H-pyrano[4,3-b]pyridin-5-one]",0.2
10,"C[C@@H]1c2nc(Nc3cc4c([C@@](C)(O)C5CC5)cnc(OCC(F)(F)F)c4cn3)ccc2C(=O)OC1(C)C (single isomer, unassigned) [Compound 55]",15.9
11,"CC[C@@](C)(O)c1cnc(OCC(F)(F)F)c2cnc(Nc3ccc4c(n3)[C@@H](C)C(C)(C)OC4=O)cc12 (single isomer, unassigned) [Compound 52]",23.2
12,"COC[C@@](C)(O)c1cnc(OC2CC2)c2cnc(Nc3ccc4c(n3)[C@@H](C)[C@H](C)OC4=O)cc12 (single isomer, unassigned) [Compound 36]",3.86
13,COc1ncc(C(C)(C)O)c2cc(Nc3cnc(C#N)c(N4CCC[C@@H]4C)n3)ncc12 [Compound 13],6.36
14,"CC[C@@](C)(O)c1cnc(O[C@H]2C[C@@H](S(C)(=O)=O)C2)c2cnc(Nc3ccc4c(n3)[C@@H](C)[C@H](C)OC4=O)cc12 (single isomer, unassigned) [Compound 62]",1.66
15,"CC[C@H](O)c1cnc(OC2CN(S(C)(=O)=O)C2)c2cnc(Nc3ccc4c(n3)[C@@H](C)[C@H](C)OC4=O)cc12 (single isomer, unassigned) [Compound 59]",12.9
16,CC1(C)Cc2nc(Nc3cc4c(C(C)(O)c5ccccc5)cnc(OC5CC5)c4cn3)ccc2C(=O)O1 (centres unmarked) [Compound 46],31.9
17,"CC[C@@](C)(O)c1cnc(O[C@H]2C[C@@H](S(C)(=O)=O)C2)c2cnc(Nc3ccc4c(n3)[C@@H](C)C(C)(C)OC4=O)cc12 (single isomer, unassigned) [Compound 65]",0.39
18,"C[C@@H]1c2nc(Nc3cc4c([C@@](C)(O)C5CC5)cnc(OCC(F)(F)F)c4cn3)ccc2C(=O)OC1(C)C (single isomer, unassigned) [Compound 54]",16.9
19,"CCOc1ncc([C@@](C)(O)C2CC2)c2cc(Nc3ccc4c(n3)[C@@H](C)C(C)(C)OC4=O)ncc12 (single isomer, unassigned) [Compound 33]",0.56
20,C[C@@H]1c2nc(Nc3cc4c(C(C)(O)C5CC5)cnc(OCC(F)F)c4cn3)ccc2C(=O)OC1(C)C (some centres unmarked) [Compound 47],1.57
21,COc1ncc(C(C)(C)O)c2cc(Nc3ccnc(C(C)(C)C)n3)ncc12 [Compound 4],2.34
22,CC1(C)CCc2nc(Nc3cc4c(C(C)(C)O)cnc(OC5CC5)c4cn3)ccc2C(=O)O1 [Compound 22],23.6

row,SMILES,IC50 [nM]
1,C[C@@H]1OC(=O)c2ccc(Nc3cc4c(C(C)(C)O)cnc(O[C@H]5C[C@@H](S(C)(=O)=O)C5)c4cn3)nc2[C@H]1C [Compound 56],0.45
2,"CC[C@@](C)(O)c1cnc(O[C@H](C)C[C@@H](C)S(C)(=O)=O)c2cnc(Nc3ccc4c(n3)[C@@H](C)[C@H](C)OC4=O)cc12 (single isomer, unassigned) [Compound 68]",0.41
3,"CC[C@@](C)(O)c1cnc(O[C@H](C)C[C@@H](C)S(C)(=O)=O)c2cnc(Nc3ccc4c(n3)[C@@H](C)C(C)(C)OC4=O)cc12 (single isomer, unassigned) [Compound 70]",0.49
4,COc1ncc(C(C)(C)O)c2cc(Nc3ccc4c(n3)CCOC4=O)ncc12 [Compound 8],4.73
5,CNc1ncc(C(C)(C)O)c2cc(Nc3ccnc(C(C)(C)C)n3)ncc12 [Compound 3],23.1
6,"CC[C@@](C)(O)c1cnc(O[C@H]2C[C@@H](S(C)(=O)=O)C2)c2cnc(Nc3ccc4c(n3)[C@@H](C)C(C)(C)OC4=O)cc12 (single isomer, unassigned) [Compound 66]",1.74
7,COc1ncc(C(C)(C)O)c2cc(Nc3ccnc(C(C)(C)F)n3)ncc12 [Compound 6],9.23
8,"CC[C@@](C)(O)c1cnc(OC2CC2)c2cnc(Nc3ccc4c(n3)[C@@H](C)C(C)(C)OC4=O)cc12 (single isomer, unassigned) [Compound 30]",2.38
9,"C[C@@H]1c2nc(Nc3cc4c([C@@](C)(O)C(F)(F)F)cnc(OC5CC5)c4cn3)ccc2C(=O)OC1(C)C (single isomer, unassigned) [Compound 51]",12.3
10,"CC[C@@](C)(O)c1cnc(O[C@H](C)C[C@@H](C)S(C)(=O)=O)c2cnc(Nc3ccc4c(n3)[C@@H](C)[C@H](C)OC4=O)cc12 (single isomer, unassigned) [Compound 67]",0.66
11,"C[C@@H]1c2nc(Nc3cc4c([C@@](C)(O)C(F)(F)F)cnc(OC5CC5)c4cn3)ccc2C(=O)OC1(C)C (single isomer, unassigned) [Compound 50]",4.51
12,"CC[C@@](C)(O)c1cnc(NC2CC2)c2cnc(Nc3ccc4c(n3)[C@@H](C)C(C)(C)OC4=O)cc12 (single isomer, unassigned) [Compound 29]",1.43
13,"C[C@@H]1c2nc(Nc3cc4c([C@@](C)(O)C5CCC5)cnc(OC5CC5)c4cn3)ccc2C(=O)OC1(C)C (single isomer, unassigned) [Compound 43]",6.72
14,"CC[C@@](C)(O)c1cnc(OCC(F)(F)F)c2cnc(Nc3ccc4c(n3)[C@@H](C)C(C)(C)OC4=O)cc12 (single isomer, unassigned) [Compound 53]",3.75
15,"CC[C@](C)(O)c1cnc(OC2CC2)c2cnc(Nc3ccc4c(n3)C3(CC3)C(C)(C)OC4=O)cc12 (single isomer, unassigned) [Compound 41]",6.55
16,CC(=O)N1CC(Oc2ncc(C(C)(C)O)c3cc(Nc4ccc5c(n4)[C@@H](C)[C@H](C)OC5=O)ncc23)C1 [Compound 45],1.91
17,"CCOc1ncc([C@@](C)(O)C2CC2)c2cc(Nc3ccc4c(n3)[C@@H](C)C(C)(C)OC4=O)ncc12 (single isomer, unassigned) [Compound 32]",15.5
18,"CC[C@@](C)(O)c1cnc(O[C@H](C)C[C@@H](C)S(C)(=O)=O)c2cnc(Nc3ccc4c(n3)[C@@H](C)C(C)(C)OC4=O)cc12 (single isomer, unassigned) [Compound 69]",0.89
19,"CC[C@H](O)c1cnc(OC2CN(S(C)(=O)=O)C2)c2cnc(Nc3ccc4c(n3)[C@@H](C)[C@H](C)OC4=O)cc12 (single isomer, unassigned) [Compound 58]",2.52
20,C[C@@H]1OC(=O)c2ccc(Nc3cc4c(C(C)(C)O)cnc(OCC5(F)CC5)c4cn3)nc2[C@H]1C [Compound 37],2.01
21,"CC[C@@H](O)c1cnc(OC2CN(S(C)(=O)=O)C2)c2cnc(Nc3ccc4c(n3)[C@@H](C)C(C)(C)OC4=O)cc12 (single isomer, unassigned) [Compound 64]",0.67
22,CC1(C)Cc2nc(Nc3cc4c(C5(O)CCOCC5)cnc(OC5CC5)c4cn3)ccc2C(=O)O1 [Compound 42],3.38
